Data from patent US20220213060A1, “Crystal Form of Quinazolinone Compound and Preparation Method Therefor” (Luoxin Healthcare Science and Technology Development …, priority 2019, published 2022).

Legend:
[1] = tested on: human breast cancer T47D (PIK3CA H1047R mutation); assay: In vivo pharmacodynamic study, T47D nude mouse subcutaneous xenograft tumor model; set-up: species or system BALB/c nude mice
Procedure: The phenotype of human T47D breast cancer cells is HR+/HER2−, and it carries PIK3CA H1047R mutation. This experiment evaluated the efficacy of the crystal form A of the compound represented by formula (I) in a human breast cancer xenograft tumor model.
Cell culture: Human breast cancer T47D cells were cultured in vitro in a single layer, the culture condition was RPMI-1640 medium with 0.2 U/mL bovine insulin and 10% fetal bovine serum, and the cells were incubated in 5% CO2 at 37° C. Digestion and passage treatment with trypsin-EDTA was carried out twice a week. When the cell saturation was 80%-90% and the number reached the requirement, the cells were collected, counted and inoculated.
Animals: BALB/c nude mice, female, 6-8 weeks old, weighing 18-20 g. A total of 75 animals were required, and provided by Shanghai Bikai experimental animal Co., Ltd or other qualified suppliers.
Tumor inoculation: Estrogen tablets (0.18 mg/tablet) were subcutaneously inoculated on the left back of each mouse. Three days later, 0.2 mL (10×10^6 cells) of T47D cells (with matrigel in a volume ratio of 1:1) were subcutaneously inoculated on the right back of each mouse, group administration was started when the average tumor volume reached 150 mm^3-200 mm^3.
Tumor-bearing mice in each administration group had good tolerance to the tested compounds.

[2] = tested on: MDA-MB-468; assay: Akt phosphorylation inhibition in MDA-MB-468 cells (high expression of PI3Kβ); type: cell-based; details: MDA-MB-468 cell line with high expression of PI3Kβ
[3] = tested on: RAW264.7; assay: Akt phosphorylation inhibition in RAW264.7 cells (high expression of PI3Kγ); type: cell-based; details: RAW264.7 cell line with high expression of PI3Kγ
[4] = target: T1, PI3Kδ (Homo sapiens, UniProt O00329); assay: In vitro enzymatic activity test (ADP-Glo lipid kinase), PI3Kδ; type: biochemical; details: inhibitory activity against PI3Kα relative to PI3Kδ
T1 construct: purchased Millipore 14-604-K
Procedure: (§1) The lipid kinase reaction was carried out in a suitable substrate and under ATP conditions, then the activity of the kinase was detected by ADP-Glo™ kit in two steps. Step 1: the kinase reaction was terminated, in which the residual ATP was completely removed and only ADP was retained; step 2: kinase detection reagent was added to convert ADP to ATP, accompanied by fluorescein/luciferase reaction. Finally, the fluorescence value output was converted into kinase activity.
(§2) Experimental Materials and Equipment:
(§3) 2) Kit: ADP-Glo™ lipid kinase and PIP2:3PS kit (Promega #V1792)
(§4) The reagent kit contains: 1 mM PIP2:3PS, 10× lipid dilution buffer, 1 M magnesium chloride, 10 mM ATP, 10 mM ADP, ADP-Glo reagent, detection buffer and detection substrate.
(§5) 3) Reaction plate: OptiPlate-384, white and transparent (PerkinElmer #6007299)
(§6) 1) 10× reaction buffer: 500 mM HEPES, pH 7.5, 500 mM NaCl, […]; BSA: 10% stock solution, self-made
(§7) 2) Final test system conditions: 1× reaction system: 50 mM of HEPES, 50 mM of NaCl, 3 mM of MgCl2, 0.01% BSA (freshly prepared on the day of experiment), 1% DMSO (v/v)+/−compound
(§8) 3) Reaction system: 3 μL of mixture of enzyme and substrate (1:1)+2 μL of ATP/MgCl2 mixture+5 μL of ADP-Glo reagent+10 μL of detection reagent.
(§9) The specific experimental operations were as follows: […]
(§10) (16) Fluorescence values were measured on the Envision instrument.

[5] = target: Mutant PI3Kα (H1047R) (Homo sapiens, UniProt P42336, H1047R); assay: In vitro enzymatic activity test, mutant PI3Kα (H1047R); type: biochemical
Source text: The crystal form A of the compound represented by formula (I) has a strong inhibitory effect on both wild-type and mutant PI3Kα kinases. […] The crystal form A of the compound represented by formula (I) has excellent selectivity to the other three subtypes of PI3K, and its inhibitory activity against PI3Kα is 149/7.44/6.61 times higher than that of PI3Kβ/δ/γ, respectively. The specific experimental method was the same as experimental embodiment 8. […] The specific experimental method was the same as experimental embodiment 9.
as §1, §2, §3
The reagent kit contains: 1 mM PIP2:3PS, 10× lipid dilution buffer, 1 M magnesium chloride, 10 mM ATP, 10 mM ADP, ADP-Glo reagent, detection buffer and detection substrate. […]
as §10

[6] = target: T2, PI3Kβ (Homo sapiens, UniProt P42338); assay: In vitro enzymatic activity test (ADP-Glo lipid kinase), PI3Kβ; type: biochemical; details: inhibitory activity against PI3Kα relative to PI3Kβ
T2 construct: purchased Promega V1751
Procedure: as §1, §2, §3, §4, §5, §6, §7, §8, §9, §10

[7] = 10 mg/kg, oral once a day for 42 days
[8] = 10 mg/kg, oral once a day for 42 days, listed as crystal form A of the compound represented by formula (I)
[9] = 20 mg/kg, oral once a day for 42 days
[10] = 20 mg/kg, oral once a day for 42 days, listed as crystal form A of the compound represented by formula (I)
[11] = 40 mg/kg, oral once a day for 42 days
[12] = 40 mg/kg, oral once a day for 42 days, listed as crystal form A of the compound represented by formula (I)

T1 sequence (O00329 whole entry): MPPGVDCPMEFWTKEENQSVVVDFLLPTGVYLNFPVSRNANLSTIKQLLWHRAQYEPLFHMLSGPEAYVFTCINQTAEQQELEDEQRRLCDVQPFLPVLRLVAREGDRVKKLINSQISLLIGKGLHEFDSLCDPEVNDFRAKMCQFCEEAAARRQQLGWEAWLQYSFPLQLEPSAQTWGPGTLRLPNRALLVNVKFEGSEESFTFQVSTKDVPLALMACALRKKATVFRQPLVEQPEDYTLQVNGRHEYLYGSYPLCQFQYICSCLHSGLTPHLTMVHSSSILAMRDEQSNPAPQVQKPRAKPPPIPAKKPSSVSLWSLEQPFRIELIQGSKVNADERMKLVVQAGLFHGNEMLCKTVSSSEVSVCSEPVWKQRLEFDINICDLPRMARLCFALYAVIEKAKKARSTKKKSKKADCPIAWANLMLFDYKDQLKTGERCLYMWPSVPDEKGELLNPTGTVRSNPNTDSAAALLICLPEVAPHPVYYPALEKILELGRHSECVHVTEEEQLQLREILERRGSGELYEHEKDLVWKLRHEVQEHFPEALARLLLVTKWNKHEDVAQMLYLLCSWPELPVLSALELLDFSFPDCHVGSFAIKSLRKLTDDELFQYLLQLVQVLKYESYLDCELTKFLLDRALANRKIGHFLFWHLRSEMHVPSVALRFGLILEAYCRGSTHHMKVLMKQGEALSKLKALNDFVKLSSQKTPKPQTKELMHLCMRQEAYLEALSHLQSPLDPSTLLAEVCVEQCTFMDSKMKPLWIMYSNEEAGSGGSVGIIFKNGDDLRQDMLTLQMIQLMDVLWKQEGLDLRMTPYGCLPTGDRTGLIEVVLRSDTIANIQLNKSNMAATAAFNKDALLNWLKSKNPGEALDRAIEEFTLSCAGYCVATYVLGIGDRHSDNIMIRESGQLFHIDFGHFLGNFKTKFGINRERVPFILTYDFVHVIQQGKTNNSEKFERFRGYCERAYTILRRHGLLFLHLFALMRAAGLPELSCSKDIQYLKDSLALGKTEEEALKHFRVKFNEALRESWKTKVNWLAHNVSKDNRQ
T1 sequence (P27986 whole entry partner): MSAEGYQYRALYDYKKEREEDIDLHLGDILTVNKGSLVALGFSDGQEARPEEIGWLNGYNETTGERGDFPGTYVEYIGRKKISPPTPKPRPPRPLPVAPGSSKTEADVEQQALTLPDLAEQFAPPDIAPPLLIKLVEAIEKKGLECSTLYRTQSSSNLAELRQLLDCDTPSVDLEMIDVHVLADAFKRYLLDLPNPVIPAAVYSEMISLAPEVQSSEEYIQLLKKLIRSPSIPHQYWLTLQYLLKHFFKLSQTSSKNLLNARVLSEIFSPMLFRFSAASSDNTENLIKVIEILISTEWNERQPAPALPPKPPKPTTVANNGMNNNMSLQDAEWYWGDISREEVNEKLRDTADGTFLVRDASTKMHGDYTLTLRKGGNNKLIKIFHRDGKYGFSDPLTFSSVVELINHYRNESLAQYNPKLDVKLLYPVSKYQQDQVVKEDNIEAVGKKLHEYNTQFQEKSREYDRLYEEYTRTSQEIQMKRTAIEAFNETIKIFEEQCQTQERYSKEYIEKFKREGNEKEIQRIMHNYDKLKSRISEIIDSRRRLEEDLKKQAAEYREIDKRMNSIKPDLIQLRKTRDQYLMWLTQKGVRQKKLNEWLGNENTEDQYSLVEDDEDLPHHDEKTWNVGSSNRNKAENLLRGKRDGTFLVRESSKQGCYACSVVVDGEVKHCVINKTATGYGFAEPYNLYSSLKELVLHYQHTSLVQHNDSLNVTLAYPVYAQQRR
T2 sequence (P42338 whole entry): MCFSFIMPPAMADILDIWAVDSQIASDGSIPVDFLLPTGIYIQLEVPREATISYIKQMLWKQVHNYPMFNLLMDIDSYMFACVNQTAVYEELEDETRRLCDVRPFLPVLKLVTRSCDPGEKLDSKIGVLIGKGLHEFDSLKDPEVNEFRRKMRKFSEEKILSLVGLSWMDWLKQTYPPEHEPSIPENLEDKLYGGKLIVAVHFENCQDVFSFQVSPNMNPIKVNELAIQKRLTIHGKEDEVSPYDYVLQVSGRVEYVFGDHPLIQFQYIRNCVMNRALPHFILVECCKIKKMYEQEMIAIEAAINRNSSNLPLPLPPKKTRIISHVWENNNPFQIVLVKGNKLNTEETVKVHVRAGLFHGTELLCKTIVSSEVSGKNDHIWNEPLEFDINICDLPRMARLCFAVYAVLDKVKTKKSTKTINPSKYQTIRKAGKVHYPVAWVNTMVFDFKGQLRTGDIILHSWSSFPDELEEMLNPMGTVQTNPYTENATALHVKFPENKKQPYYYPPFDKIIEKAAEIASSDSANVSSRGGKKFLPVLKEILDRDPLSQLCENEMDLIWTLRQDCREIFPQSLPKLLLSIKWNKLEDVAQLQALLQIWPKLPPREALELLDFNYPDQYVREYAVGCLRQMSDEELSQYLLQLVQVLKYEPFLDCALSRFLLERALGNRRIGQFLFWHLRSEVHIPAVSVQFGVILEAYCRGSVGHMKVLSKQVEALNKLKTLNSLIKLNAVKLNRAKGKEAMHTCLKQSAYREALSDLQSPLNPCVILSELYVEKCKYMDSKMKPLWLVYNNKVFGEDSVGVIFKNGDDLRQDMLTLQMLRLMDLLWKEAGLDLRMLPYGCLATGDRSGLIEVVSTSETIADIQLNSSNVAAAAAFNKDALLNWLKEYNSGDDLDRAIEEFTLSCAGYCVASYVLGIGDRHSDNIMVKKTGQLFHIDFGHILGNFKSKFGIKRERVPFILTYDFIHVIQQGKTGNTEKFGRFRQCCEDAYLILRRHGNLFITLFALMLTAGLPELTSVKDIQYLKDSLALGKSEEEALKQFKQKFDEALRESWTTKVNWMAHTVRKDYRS
T2 sequence (P27986 whole entry partner): as the sequence (P27986 whole entry partner) above
Sequence of Mutant PI3Kα (H1047R) (P42336 whole entry H1047R): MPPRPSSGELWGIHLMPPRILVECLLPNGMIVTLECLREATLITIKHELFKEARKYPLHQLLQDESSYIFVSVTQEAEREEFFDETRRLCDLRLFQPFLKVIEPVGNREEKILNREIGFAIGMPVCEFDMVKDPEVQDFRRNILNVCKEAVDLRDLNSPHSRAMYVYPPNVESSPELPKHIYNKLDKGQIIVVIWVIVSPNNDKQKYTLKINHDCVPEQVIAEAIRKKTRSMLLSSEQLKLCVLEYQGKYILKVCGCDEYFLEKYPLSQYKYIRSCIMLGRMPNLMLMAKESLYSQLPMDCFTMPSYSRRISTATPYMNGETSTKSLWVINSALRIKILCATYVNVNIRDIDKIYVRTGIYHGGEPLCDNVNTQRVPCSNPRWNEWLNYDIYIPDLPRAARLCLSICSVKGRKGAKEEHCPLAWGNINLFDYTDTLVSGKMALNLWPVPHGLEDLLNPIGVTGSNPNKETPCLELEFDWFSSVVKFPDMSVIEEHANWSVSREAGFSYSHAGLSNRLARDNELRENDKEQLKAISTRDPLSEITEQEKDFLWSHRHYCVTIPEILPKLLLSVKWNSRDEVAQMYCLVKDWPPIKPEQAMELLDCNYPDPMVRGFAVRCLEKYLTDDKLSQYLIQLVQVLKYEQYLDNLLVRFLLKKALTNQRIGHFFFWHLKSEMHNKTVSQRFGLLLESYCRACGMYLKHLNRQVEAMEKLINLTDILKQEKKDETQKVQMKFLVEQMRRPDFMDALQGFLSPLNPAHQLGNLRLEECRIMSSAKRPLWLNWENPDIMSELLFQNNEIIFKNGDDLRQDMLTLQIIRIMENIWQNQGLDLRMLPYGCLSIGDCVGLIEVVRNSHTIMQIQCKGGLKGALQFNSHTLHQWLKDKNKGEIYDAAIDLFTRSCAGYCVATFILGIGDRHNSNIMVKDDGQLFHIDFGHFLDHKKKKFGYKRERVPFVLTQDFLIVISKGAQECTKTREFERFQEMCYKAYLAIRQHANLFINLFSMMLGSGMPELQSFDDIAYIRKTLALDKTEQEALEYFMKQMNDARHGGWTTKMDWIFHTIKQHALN
Sequence of Mutant PI3Kα (H1047R) (P27986 whole entry partner): as the sequence (P27986 whole entry partner) above

Which results are given for `CNC(=O)[C@H](C)Cn1cnc2ccc(-c3cnc(OC)c(NS(=O)(=O)c4ccc(F)cc4F)c3)cc2c1=O`?
Anti-tumor effect (in words) ([1]; 10 mg/kg group): strong anti-tumor effect; T/C % [1, 7]: 50.40%; TGI % [1, 7]: 67.58%; T/C % [1, 8]: 50.40%; TGI % [1, 8]: 67.58%; Anti-tumor effect (in words) ([1]; 20 mg/kg group): strong anti-tumor effect; T/C % [1, 9]: 44.70%; TGI % [1, 9]: 72.56%; T/C % [1, 10]: 44.70%; TGI % [1, 10]: 72.56%; Anti-tumor effect (in words) ([1]; 40 mg/kg group): significant anti-tumor effects; T/C % [1, 11]: 37.91%; TGI % [1, 11]: 84.71%; T/C % [1, 12]: 37.91%; TGI % [1, 12]: 84.71%; Dose to play the effect ([1]; oral once a day for 42 days): 10 mg/kg; Selectivity PI3Kα over PI3Kβ, Akt phosphorylation inhibitory activity in cells [2]: 195 times; Selectivity PI3Kα over PI3Kγ, Akt phosphorylation inhibitory activity in cells [3]: > 694 times; Selectivity PI3Kα/δ (kinase) [4]: 7.44 times; IC50 [5]: 690 pM; Selectivity PI3Kα/β (kinase) [6]: 149 times
